Data set [1] is described as follows: MTS viability assay. Type of data set: cell-based, murine. To be noted: mouse, AML12 cells; AML12, 24 h, vehicle = 100%.
The test system of the next data set is AML12. The data set can be described thus: MTS viability assay. To be noted: Mus musculus; AML12, 24 h, MTS; read-out: IC50 (µM), cell viability. It is filed as cell-based, murine.
The test system of data set [2] is BSEP and SHP mRNA (FXR target genes), primary human hepatocytes. The data set can be described thus: RT-qPCR of FXR target genes in primary human hepatocytes. Type of data set: cell-based. The following applies: for BSEP mRNA level upregulated by OCA / SHP mRNA level upregulated by OCA: 40 µM with OCA 1 µM, 24 h; for BSEP and SHP mRNA expression, compound per se: without OCA. An excerpt: Total RNA from HepaRG cells or primary human hepatocyte samples was isolated by the phenol/chloroform method with TRI-reagent (Merck) according to the manufacturer's protocol. The cDNA was synthesized using a Tetro cDNA Synthesis Kit (Bioline, now Meridian Bioscience, Memphis, United States), and RT-qPCR was run in the Quant Studio 6 instrument using the Fast Advanced Master Mix (ThermoFisher Scientific, Waltham, United States) according to the MIQE protocols. All the probes were obtained from ThermoFisher Scientific: ABCB11 (BSEP, Hs00184824_m1), NR0B2 (SHP, Hs00222677_m1).
FIGURE 6 Regulation of FXR downstream genes by 7-ELCA and 7β-propyl-CDCA in the presence or absence of 1 µM OCA as the potent FXR agonist. Real-time qPCR analysis of mRNA expression of (A,C) BSEP and (B,D) SHP genes was performed in terminally differentiated HepaRG hepatic cells (A,B), and in primary human hepatocytes (PHH) from one donor treated for 24 h (C,D). (E) SHP protein expression in HepaRG cells after 48 h treatment with OCA alone or in combination with 7-ELCA and 7β-propyl-CDCA. Data were normalized to B2M mRNA or GAPDH protein and are expressed relative to those of control (vehicle-treated) cells.
In general terms: Real-time PCR tracks product formation cycle by cycle.

The test system of data set [3] is SHP protein, HepaRG cells. The data set can be described thus: Western blot of SHP protein in HepaRG cells. Type of data set: cell-based, human. To be noted: with OCA 1 µM, 48 h. The protocol:
Protein determination was performed from whole-cell lysates of terminally differentiated HepaRG cells treated for 48 h. Protein levels were quantified using a PierceTM BCA Protein Assay Kit (ThermoFisher Scientific, Waltham, United States) according to the manufacturer's protocol. The western blotting analysis was performed as described in our previous paper ([Stefela et al., 2020]) with mouse monoclonal anti-SHP antibody (clone OTI5F10, Cat. No. TA806319, Origene, Rockville, MD, United States) and antibody against GAPDH (Cell Signaling Technology, Leiden, the Netherlands) as a loading control. Protein concentration was measured using the BCA protein assay (Sigma-Aldrich/Merck, Prague, Czech Republic). Protein expression quantification was done using densitometric software (LabImage, Kapelan Bio-Imaging, Germany).
FIGURE 6 Regulation of FXR downstream genes by 7-ELCA and 7β-propyl-CDCA in the presence or absence of 1 µM OCA as the potent FXR agonist. Real-time qPCR analysis of mRNA expression of (A,C) BSEP and (B,D) SHP genes was performed in terminally differentiated HepaRG hepatic cells (A,B), and in primary human hepatocytes (PHH) from one donor treated for 24 h (C,D). (E) SHP protein expression in HepaRG cells after 48 h treatment with OCA alone or in combination with 7-ELCA and 7β-propyl-CDCA. […]
In general terms: A western blot detects proteins with antibodies after separation by electrophoresis.

The subject of the next data set is HepG2. Kind of data set: MTS viability assay. To be noted: Homo sapiens; HepG2, 24 h, MTS; read-out: IC50 (µM), cell viability. Type of data set: cell-based, human. A general note: Tetrazolium dyes change colour on reduction, which living cells bring about.
Data set [4] in a line: MTS viability assay. Type of data set: cell-based, human. The following applies: human, vehicle = 100%.
The next data set relates to HepaRG. The data set can be described thus: MTS viability assay. The following applies: Homo sapiens, 24 h, MTS, read-out: IC50 (µM), cell viability. It is filed as cell-based, human.
In the next data set the test system is Huh7. The data set can be described thus: MTS viability assay. To be noted: Homo sapiens, Huh-7; Huh7, 24 h, MTS; read-out: IC50 (µM), cell viability. Type of data set: cell-based, human.
Data set [5] relates to GPBAR1 mRNA, NCI-H716 cells. Kind of data set: GPBAR1 mRNA expression in differentiated NCI-H716 cells. Type of data set: cell-based, human. The following applies: 10 µM, 2 h. The procedure:
FIGURE 8 Effects of 7-alkylated derivatives of CDCA and 7-ELCA on the membrane receptor GPBAR1. […]. (B) CRE-luc activation depends on the presence of GPBAR1. (C) Effects of LCA and 7-ELCA (both at 10 µM) on intracellular generation of cAMP in differentiated NCI-H716 cells after 30 min treatment. The increase in cAMP level (ΔcAMP) is presented as the difference between cAMP concertation in the treated sample after subtraction of the cAMP in the nontreated control sample. (D) Concentration-response curves for activation of GPBAR1 by LCA and 7-ELCA. EC50 values were calculated using nonlinear fitting of concentration-response curves. […] (G) 7-ELCA (10 µM) increases GLP-1 secretion in siRNA control but not in siRNA Gpbar1 transfected GLUTag cells after 1 h treatment. GLP-1 was normalized to protein concentration and GPBAR1 mRNA expression to GAPDH mRNA. Data are presented as a fold to control nontreated (NT) samples. Forskolin (FSK, 10 µM) was used as a GPBAR1-independent activator of cAMP production.

The target in data set [6] is glucocorticoid receptor (GR) (Homo sapiens, UniProt P04150). Kind of data set: Nuclear receptor specificity luciferase reporter assay in HepG2 cells.
Chain of glucocorticoid receptor (GR) (P04150 whole entry): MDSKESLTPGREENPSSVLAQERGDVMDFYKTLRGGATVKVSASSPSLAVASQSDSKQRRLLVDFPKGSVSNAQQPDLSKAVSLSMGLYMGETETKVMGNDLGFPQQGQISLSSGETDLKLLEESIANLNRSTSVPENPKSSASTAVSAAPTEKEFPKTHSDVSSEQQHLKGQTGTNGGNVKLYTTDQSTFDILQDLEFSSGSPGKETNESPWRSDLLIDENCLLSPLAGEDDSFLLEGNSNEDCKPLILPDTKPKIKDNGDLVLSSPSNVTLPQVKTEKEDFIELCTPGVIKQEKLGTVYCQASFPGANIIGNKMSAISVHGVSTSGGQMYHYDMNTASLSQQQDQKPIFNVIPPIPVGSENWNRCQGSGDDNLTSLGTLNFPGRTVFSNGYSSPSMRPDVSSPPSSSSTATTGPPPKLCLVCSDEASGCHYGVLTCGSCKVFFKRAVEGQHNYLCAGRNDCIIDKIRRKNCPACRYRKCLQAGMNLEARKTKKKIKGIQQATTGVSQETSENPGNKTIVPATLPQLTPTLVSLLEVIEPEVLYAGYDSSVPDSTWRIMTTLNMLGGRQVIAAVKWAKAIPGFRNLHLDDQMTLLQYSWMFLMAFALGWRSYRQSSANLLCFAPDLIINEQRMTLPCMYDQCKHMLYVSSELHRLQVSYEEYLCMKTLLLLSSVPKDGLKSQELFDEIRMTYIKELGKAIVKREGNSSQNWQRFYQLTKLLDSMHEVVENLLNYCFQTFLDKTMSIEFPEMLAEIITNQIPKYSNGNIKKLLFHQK
Description: (§1) For transient transfection, HepG2 cells were seeded at the density of 40,000 cells/cm^2. […] The next day, cells were challenged with tested ligands in indicated concentrations for 5 h. […] All the other transient transfection reporter gene assays were performed with Lipofectamine® 3000 (ThermoFisher Scientific). Briefly, cells were transfected with 150 ng/well luciferase reporter gene constructs (p(DR3)3-luc, SHP-luc, p3A4-luc, pTAT-(GRE)2-TK-luc, p2B6-luc, pGL4.35[luc2P⁄9XGAL4UAS⁄Hygro]), FXRE-luc together with 100 ng/well of the corresponding full-length fragment nuclear receptor expression vectors (pSG5-hVDR, pSG5-hFXR, pSG5-hRXRα, pSG5-hPXR, CAR3 variant) or the ligand binding domains of human, pCMX-GAL4-hFXR, pCMX-GA4L-LXRα, pCMX-GA4L-LXRα, pCMX-GA4L-TRα, pCMX-GA4L-PPARα, pCMX-GAL4-PPARγ, pCMX-GAL4-PPARδ) and 30 ng/well of pRL-TK Renilla luciferase vector 24 h prior to the treatment. […] The firefly luciferase activity was measured using the Dual Luciferase® Reporter Assay System (Promega) and normalized to Renilla luciferase activity. Experiments in an agonistic mode were performed with OCA, CDCA or tested compounds (all compounds at 10 μM). […] EC50 and IC50 were calculated using GraphPad PRISM ver. […]
(§2) Data were normalized to Renilla luciferase activity and are expressed as fold activation relative to control (nontreated, NT) cells. […]
The next data set deals with thyroid receptor (TRα) (Homo sapiens, UniProt P10827). Described as above.
Chain of thyroid receptor (TRα) (P10827 163-410 isoform P10827-2 limits assumed): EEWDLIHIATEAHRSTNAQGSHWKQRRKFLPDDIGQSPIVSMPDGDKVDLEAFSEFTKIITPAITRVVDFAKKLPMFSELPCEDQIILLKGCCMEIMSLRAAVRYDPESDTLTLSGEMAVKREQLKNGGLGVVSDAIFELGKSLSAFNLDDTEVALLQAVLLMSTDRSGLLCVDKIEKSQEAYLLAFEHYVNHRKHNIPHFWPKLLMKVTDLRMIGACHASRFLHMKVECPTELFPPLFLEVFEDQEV
A further data set concerns the target LXRβ (Homo sapiens, UniProt P55055). The description is as above.
For data set [7], the target named is pregnane X receptor (PXR) (Homo sapiens, UniProt O75469). Described as above.
Chain of pregnane X receptor (PXR) (O75469 whole entry): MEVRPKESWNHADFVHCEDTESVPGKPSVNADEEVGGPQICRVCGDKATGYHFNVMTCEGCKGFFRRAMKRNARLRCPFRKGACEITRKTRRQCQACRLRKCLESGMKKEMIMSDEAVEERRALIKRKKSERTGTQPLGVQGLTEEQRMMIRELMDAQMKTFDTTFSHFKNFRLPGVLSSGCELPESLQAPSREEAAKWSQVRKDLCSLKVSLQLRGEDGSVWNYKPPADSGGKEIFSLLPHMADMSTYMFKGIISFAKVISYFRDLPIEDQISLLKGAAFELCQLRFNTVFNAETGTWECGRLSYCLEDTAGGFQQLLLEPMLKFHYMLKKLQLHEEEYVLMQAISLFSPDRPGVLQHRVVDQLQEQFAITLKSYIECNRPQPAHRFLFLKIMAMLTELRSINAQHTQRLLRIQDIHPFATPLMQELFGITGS
Description: as §1, §2

Consider two compounds from paper PMC8414367, “(E)-7-Ethylidene-lithocholic Acid (7-ELCA) Is a Potent Dual Farnesoid X Receptor (FXR) Antagonist and GPBAR1 Agonist Inhibiting FXR-Induced Gene Expression in Hepatocytes and Stimulating Glucagon-like Peptide-1 Secretion From Enteroendocrine Cells” (Frontiers in Pharmacology, 2021).

One may read the viability as a read-out of living cells in per cent, often relative to untreated cells. In general, IC50 refers to the concentration that gives 50% inhibition. Broadly, the melting point is the temperature of the solid-liquid transition.

Chain of LXRβ (P55055 222-460 limits assumed): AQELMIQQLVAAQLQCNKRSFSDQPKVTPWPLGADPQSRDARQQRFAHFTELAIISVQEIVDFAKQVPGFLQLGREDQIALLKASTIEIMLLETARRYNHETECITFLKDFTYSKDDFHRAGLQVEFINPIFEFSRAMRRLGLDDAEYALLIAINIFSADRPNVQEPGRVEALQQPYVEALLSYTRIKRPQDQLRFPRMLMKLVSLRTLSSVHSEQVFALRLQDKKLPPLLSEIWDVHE
Description for LXRβ: as §1, §2

On to `CCC[C@@]1(O)C[C@@H]2C[C@H](O)CC[C@]2(C)C2CC[C@@]3(C)C(CC[C@@H]3[C@H](C)CCC(=O)O)C21` (stereo partly drawn) [2f, 3α,7α-Dihydroxy-7β-propyl-5β-cholan-24-oic acid], for which the melting point was 100 to 105 °C. Besides, the viability at 24 h, 10 µM in the data set “MTS viability assay [1]” was found to be 81.2 ± 1%. In addition, the IC50 with AML12 stood at 90.8 µM. Moreover, in data set [2], the “BSEP mRNA level upregulated by OCA” value is reported as “reduced”; the “SHP mRNA level upregulated by OCA” value is on record as “reduced”; the “BSEP and SHP mRNA expression, compound per se” value is listed as “did not have an impact”. Besides, the “SHP protein expression in cells treated with OCA” value in data set [3] is “FXR antagonistic effect”. Moreover, in the data set on HepG2, the IC50 amounted to 107 ± 1.1 µM. Moreover, the viability at 24 h, 10 µM in the data set “MTS viability assay [4]” (HepG2 cells, HepG2, 24 h) is 94.9 ± 11.7%. Besides, in “MTS viability assay [4]” (HepaRG cells), the viability at 24 h, 10 µM turned out to be 89.4 ± 2.5%. In addition, in “MTS viability assay [4]” (Huh7 cells, Huh7, 24 h), the viability at 24 h, 10 µM amounted to 117 ± 2.3%. For the same compound, the IC50 in the data set with HepaRG is 97.3 µM. In the data set with Huh7, the IC50 is over 100 µM.

With `C/C=C1\C[C@@H]2C[C@H](O)CC[C@]2(C)[C@H]2CC[C@]3(C)[C@@H]([C@H](C)CCC(=O)O)CC[C@H]3[C@H]12` [2a, (E)-3α-Hydroxy-7-ethylidene-5β-cholan-24-oic acid], the melting point was in the range of 67 to 72 °C. In addition, in “MTS viability assay [1]”, the viability at 24 h, 10 µM came to 108 ± 4.8%. In addition, the IC50 with AML12 was over 200 µM. Moreover, in data set [5], the “GPBAR1 mRNA expression” value is listed as “increase GPBAR1 mRNA expression”. The “antagonism of GR activation by model ligand” value in [6] (10 µM, with dexamethasone 50 nM) is recorded as “did not antagonize”. In addition, in [6] (agonistic assay, 24 h), the “activation of GR” value is listed as “did not activate”. Besides, the “antagonism of TRα activation by model ligand” value on thyroid receptor (TRα) (10 µM, with thyroxin 1 µM) is recorded as “did not antagonize”. Also, at thyroid receptor (TRα) (agonistic assay, 24 h), the “activation of TRα” value is “did not activate”. In addition, in [2], the “BSEP mRNA level upregulated by OCA” value is “reduced”; the “SHP mRNA level upregulated by OCA” value was “reduced”; the “BSEP and SHP mRNA expression, compound per se” value is “did not have an impact”. Besides, on LXRβ (10 µM, with GW3965 1 µM), the “antagonism of LXRβ activation by model ligand” value is “did not antagonize”. Further, the “activation of LXRβ” value on LXRβ (agonistic assay, 24 h) is recorded as “did not activate”. Moreover, the “antagonism of PXR activation by model ligand” value in data set [7] (10 µM, with rifampicin 1 µM) is recorded as “did not antagonize”. The “activation of PXR” value in data set [7] (agonistic assay, 24 h) is “did not activate”. Besides, the “SHP protein expression in cells treated with OCA” value in data set [3] was “FXR antagonistic effect”. In the data set with HepG2, the IC50 was over 200 µM. Further, the viability at 24 h, 10 µM in the data set “MTS viability assay [4]” (HepG2 cells, HepG2, 24 h) came out at 99.7 ± 1.2%. For the same compound, the viability at 24 h, 10 µM in the data set “MTS viability assay [4]” (HepaRG cells) came to 119 ± 6%. Further, the viability at 24 h, 10 µM in the data set “MTS viability assay [4]” (Huh7 cells, Huh7, 24 h) is 111 ± 9.5%. For the same compound, in the data set with HepaRG, the IC50 is over 200 µM. Also, the IC50 in the data set on Huh7 is over 200 µM.
